According to patent US8999983B2, “Modulators of Hec1 activity and methods therefor” (Taivex Therapeutics Corporation, priority 2011, dated 2015):
pIC50: −log10 of the molar value. Like-named read-outs stand apart in the source and are kept apart here.

Columns and labels:
Assay type in all cases: cell-based
[1] = tested on: Hela; assay: Antiproliferation assay (MTS), HeLa cells; settings: Homo sapiens, 96 h
Procedure: (§1) Cells were grown at 37° C. in a humidified atmosphere consisting of 5% CO2 and 95% air.
(§2) Antiproliferation Assays: Cells were plated in a 96-well culture plate with 2000-8000 cells per well. The compounds were prepared in DMSO and used to treat cells in a final concentration of less than 1% DMSO. Compound treatment started after overnight incubation of cells (T0). […] Compound was added to the plate in triplicate wells, and the plates were then incubated for 96 hours. DMSO (compound diluent) was also included and added to the plate in control wells. Cell viability was then determined by MTS assay using the CellTiter 96® aqueous non-radioactive cell proliferation assay system (Promega, Madison, Wis. 53711 USA). A plate reader (Vmax, Molecular Devices, Sunnyvale Calif. 94089 USA) was used to determine the optical densities, and the results were used to deduce concentration-response curves. […] The results were analyzed using linear regression software (GraphPad Prism 5; GraphPad Software Inc. La Jolla Calif. 92037 USA).

[2] = tested on: K562; assay: Antiproliferation assay (MTS), K562 cells; settings: Homo sapiens, K562, 96 h
Procedure: as §1, §2

[3] = tested on: MDA-MB-468; assay: Antiproliferation assay (MTS), MDA-MB-468 cells; settings: Homo sapiens, MDA-MB-468, 96 h
Procedure: as §1, §2

[4] = tested on: MDA-MB-231; assay: Antiproliferation assay (MTS), MDA-MB-231 cells; settings: Homo sapiens, MDA-MB-231, 96 h, read-out: Antiproliferative IC50 MDA-MB-231, Table 1
Procedure: as §1, §2

[5] = Table 1, read-out: Antiproliferative IC50 Hela
[6] = Table 1, read-out: Antiproliferative IC50 K562
[7] = Table 1, read-out: Antiproliferative IC50 MDA-MB-468
[8] = Table 2, read-out: Antiproliferative IC50 Hela

pIC50 [1, 5]	pIC50 [2, 6]	pIC50 [3, 7]	pIC50 [4]	pIC50 ([3]; Table 2, read-out: Antiproliferative IC50 MDA-MB-468)	pIC50 [1, 8]	pIC50 ([2]; Table 2, read-out: Antiproliferative IC50 K562)	Compound
		5.66	5.95				Cc1cc(C)c(-c2csc(NC(=O)/C=C/c3cccnc3)n2)c(C)c1 [Compound 50, (E)-N-(4-Mesitylthiazol-2-yl)-3-(pyridin-3-yl)acrylamide]
5.67	6.44		6.14				Cc1cc(Nc2ccc(Br)cc2)cc(C)c1-c1csc(NC(=O)c2ccncc2)n1 [Compound 52, N-(4-(4-(4-Bromophenylamino)-2,6-dimethylphenyl)thiazol-2-yl)isonicotinamide]
7.18	7.58	7.31	7.27				Cc1cc(Sc2ccc(NS(C)(=O)=O)cc2)cc(C)c1-c1csc(NC(=O)c2ccncc2)n1 [Compound 43, N-(4-(2,6-Dimethyl-4-((4-(methylsulfonamido)phenyl)thio)phenyl)thiazol-2-yl)isonicotinamide]
					< 5.00	5.61	Cc1cc(C)c(-c2csc(NC(=O)/C=C/c3cccnc3)n2)c(C)c1 [II-103, (E)-N-(4-Mesitylthiazol-2-yl)-3-(pyridin-3-yl)acrylamide]
5.35	6.20	5.18	5.63				COc1cc(Cl)c(-c2csc(NC(=O)c3ccncc3)n2)c(Cl)c1 [Compound 10, N-(4-(2,6-Dichloro-4-methoxyphenyl)thiazol-2-yl)isonicotinamide]
6.43	6.61	5.99	6.41				COc1cc(F)c(-c2csc(NC(=O)c3ccncc3)n2)c(Cl)c1 [Compound 13, N-(4-(2-Chloro-6-fluoro-4-methoxyphenyl)thiazol-2-yl)isonicotinamide]
6.52	7.05	6.55	6.74				Cc1cc(Sc2ccc(O)cc2)cc(C)c1-c1csc(NC(=O)c2ccncc2)n1 [Compound 34, N-{4-(4-(4-Hydroxyphenylsulfanyl)-2,6-dimethylphenyl)thiazol-2-yl}isonicotinamide]
7.36	7.58	7.02	7.33				Cc1cc(Sc2ccc(N)cc2)cc(C)c1-c1csc(NC(=O)c2ccncc2)n1 [Compound 35, N-{4-(4-(4-Aminophenylsulfanyl)-2,6-dimethylphenyl)thiazol-2-yl}isonicotinamide]
6.78	7.23	6.92	7.12				Cc1cc(Sc2ccc(N(S(C)(=O)=O)S(C)(=O)=O)cc2)cc(C)c1-c1csc(NC(=O)c2ccncc2)n1 [Compound 42, N-(4-(2,6-Dimethyl-4-((4-(N-(methylsulfonyl)methylsulfonamido)phenyl)thio)phenyl)thiazol-2-yl)isonicotinamide]
7.37	7.79	7.40	7.70				COc1ccc(Oc2cc(C)c(-c3csc(NC(=O)c4ccnc(F)c4)n3)c(C)c2)cc1 [Compound 49, 2-Fluoro-N-(4-(4-(4-methoxyphenoxy)-2,6-dimethylphenyl)thiazol-2-yl)isonicotinamide]
7.07	7.19	6.88	7.00				Cc1cc(Oc2ccc(Oc3ccccc3)cc2)cc(C)c1-c1csc(NC(=O)c2ccncc2)n1 [Compound 26, N-{4-(2,6-Dimethyl-4-(4-phenoxyphenoxy)phenyl)thiazol-2-yl}isonicotinamide]
5.99	6.44	6.18	6.15				Cc1cc(Oc2ncccn2)cc(C)c1-c1csc(NC(=O)c2ccncc2)n1 [Compound 6, N-{4-(2,6-Dimethyl-4-(pyrimidin-2-yloxy)phenyl)thiazol-2-yl}isonicotinamide]
	6.31	6.21	6.20				COc1cc(C)c(-c2csc(NC(=O)Nc3ccncc3)n2)c(C)c1 [Compound 45, 1-(4-(4-Methoxy-2,6-dimethylphenyl)thiazol-2-yl)-3-(pyridin-4-yl)urea]

The remaining lines, values behind:

Compound	pIC50 [1, 5]	pIC50 [2, 6]	pIC50 [3, 7]	pIC50 [4]	pIC50 ([3]; Table 2, read-out: Antiproliferative IC50 MDA-MB-468)	pIC50 [1, 8]	pIC50 ([2]; Table 2, read-out: Antiproliferative IC50 K562)
Cc1cc(Sc2cccc(Cl)c2)cc(C)c1-c1csc(NC(=O)c2ccncc2)n1 [Compound 38, N-{4-(4-(3-Chlorophenylsulfanyl)-2,6-dimethylphenyl)thiazol-2-yl}isonicotinamide]	6.30	6.89	6.45	6.71			
Cc1cc(OCC2CC2)cc(C)c1-c1csc(NC(=O)c2ccncc2)n1 [Compound 4, N-{4-(4-(Cyclopropylmethoxy)-2,6-dimethylphenyl)thiazol-2-yl}isonicotinamide]	6.55	6.69	6.61	6.80			
COc1ccc(Sc2cc(C)c(-c3csc(NC(=O)c4ccncc4)n3)c(C)c2)cc1OC [Compound 33, N-{4-(4-(3,4-Dimethoxyphenylsulfanyl)-2,6-dimethylphenyl)thiazol-2-yl}isonicotinamide]	7.24	7.55	7.14	7.31			
Cc1cc(Nc2ccc(Br)cc2)cc(C)c1-c1csc(NC(=O)c2ccncc2)n1 [II-122, N-(4-(4-(4-Bromophenylamino)-2,6-dimethylphenyl)thiazol-2-yl)isonicotinamide]					5.91		
COc1cc(F)cc(Cl)c1-c1csc(NC(=O)c2ccncc2)n1 [Compound 14, N-(4-(2-Chloro-4-fluoro-6-methoxyphenyl)thiazol-2-yl)isonicotinamide]	5.52	5.43	5.03	5.20			
Cc1cc(Oc2ccc(O)nc2)cc(C)c1-c1csc(NC(=O)c2ccncc2)n1 [Compound 5, N-{4-(4-(6-Hydroxypyridin-3-yloxy)-2,6-dimethylphenyl)thiazol-2-yl}isonicotinamide]	6.04	6.25	6.00	5.91			
COc1cc(C)c(-c2csc(NC(=O)Nc3ccncc3)n2)c(C)c1 [II-67, 1-(4-(4-Methoxy-2,6-dimethylphenyl)thiazol-2-yl)-3-(pyridin-4-yl)urea]						< 5.00	
Cc1cc(Oc2cnccn2)cc(C)c1-c1csc(NC(=O)c2ccncc2)n1 [Compound 7, N-{4-(2,6-Dimethyl-4-(pyrazin-2-yloxy)phenyl)thiazol-2-yl}isonicotinamide]	6.66	7.04	6.72	6.79			
Cc1cc(C)c(-c2csc(NC(=O)Cc3ccncc3)n2)c(C)c1 [Compound 47, N-(4-Mesitylthiazol-2-yl)-2-(pyridin-4-yl)acetamide]	6.21	6.42	6.52	6.51			
COc1ccc(Oc2cc(C)c(-c3csc(NC(=O)c4ccncc4)n3)c(F)c2)cc1 [Compound 30, N-{4-(2-Fluoro-4-(4-methoxyphenoxy)-6-methylphenyl)thiazol-2-yl}isonicotinamide]	6.97	6.97	6.84	6.57			
Cc1cc(Oc2ccc(OC(C)C)cc2)cc(C)c1-c1csc(NC(=O)c2ccncc2)n1 [Compound 16, N-{4-(4-(4-Isopropoxyphenoxy)-2,6-dimethylphenyl)thiazol-2-yl}isonicotinamide]	7.10	7.23	7.16	7.09			
Cc1cc(N(C)C)cc(C)c1-c1csc(NC(=O)c2ccncc2)n1 [Compound 1, N-{4-(4-(Dimethylamino)-2,6-dimethylphenyl)thiazol-2-yl}isonicotinamide]	6.60	7.06	6.78	6.84			
Cc1cc(OCCN(C)C)cc(C)c1-c1csc(NC(=O)c2ccncc2)n1 [Compound 23, N-(4-{4-(2-(Dimethylamino)ethoxy)-2,6-dimethylphenyl}thiazol-2-yl)isonicotinamide]	< 5.00	< 5.00	< 5.00	< 5.00			
CC(=O)Nc1ccc(Sc2cc(C)c(-c3csc(NC(=O)c4ccncc4)n3)c(C)c2)cc1 [Compound 36, N-{4-(4-(4-Acetylaminophenylsulfanyl)-2,6-dimethylphenyl)thiazol-2-yl}isonicotinamide]	7.61	7.72	7.20	7.35			
COc1ccc(Oc2cc(C)c(-c3nc(NC(=O)c4ccncc4)sc3Br)c(C)c2)cc1 [Compound 2, N-{5-Bromo-4-(4-(4-methoxyphenoxy)-2,6-dimethylphenyl)thiazol-2-yl}isonicotinamide]	6.18	6.56	6.23	6.32			
Cc1cc(Sc2nccn2C)cc(C)c1-c1csc(NC(=O)c2ccncc2)n1 [Compound 41, N-(4-(2,6-Dimethyl-4-((1-methyl-1H-imidazol-2-yl)thio)phenyl)thiazol-2-yl)isonicotinamide]	7.21	7.51	7.20	7.06			
